According to US7138361B2, “Herbicidal heterocycles” (E. I. du Pont de Nemours and Company, priority 2000, dated 2006):

Columns and labels:
Format in all cases: in vivo
[1] = system: velvetleaf (Abutilon theophrasti); assay: Test C preemergence; conditions: preemergence; for Plant response rating, Velvetleaf: scale 0 to 100, 0 no effect, 100 complete control
Text: (§1) Seeds of plant species selected from bermudagrass (Cynodon dactylon), Surinam grass (Brachiaria decumbens), cocklebur (Xanthium strumarium), corn (Zea mays), crabgrass (Digitaria sanguinalis), woolly cupgrass (Eriochloa villosa), giant foxtail (Setaria faberii), goosegrass (Eleusine indica), johnsongrass (Sorghum halepense), kochia (Kochia scoparia), lambsquarters (Chenopodium album), morningglory (Ipomoea hederacea), yellow nutsedge (Cyperus esculentus), pigweed (Amaranthus retroflexus), common ragweed (Ambrosia elatior), soybean (Glycine max) and velvetleaf (Abutilon theophrasti) were planted and treated preemergence with test chemicals formulated in a non-phytotoxic solvent mixture which included a surfactant.
(§2) At the same time, plants selected from these crop and weed species and also winter barley (Hordeum vulgare), blackgrass (Alopecurus myosuroides), canary grass (Phalaris minor), chickweed (Stellaria media), downy brome (Bromus tectorum), green foxtail (Setaria viridis), Italian ryegrass (Lolium multiflorum), wheat (Triticum aestivum), wild oat (Avena fatua) and windgrass (Apera spica-venti) were treated with postemergence applications of some of the test chemicals formulated in the same manner. Plants ranged in height from 2 to 18 cm (1- to 4-leaf stage) for postemergence treatments. Plant species in the flooded paddy test consisted of rice (Oryza saliva), smallflower flatsedge (Cyperus difformis), duck salad (Heteranthera limosa) and barnyardgrass (Echinochloa crus-galli) grown to the 2-leaf stage for testing. Treated plants and controls were maintained in a greenhouse for 12 to 14 days, after which time all species were compared to controls and visually evaluated. Plant response ratings, summarized in Table C, are based on a scale of 0 to 100 where 0 is no effect and 100 is complete control. A dash (-) response means no test result.

[2] = system: kochia (Kochia scoparia); assay: Test C preemergence; conditions: for Plant response rating, Kochia: scale 0 to 100, 0 no effect, 100 complete control; for Plant response rating (0 to 100), Kochia: visual evaluation after 12 to 14 days
Text: as §1, §2

[3] = system: cocklebur (Xanthium strumarium); assay: Test C preemergence; conditions: for Plant response rating, Cocklebur: scale 0 to 100, 0 no effect, 100 complete control; for Plant response rating (0 to 100), Cocklebur: visual evaluation after 12 to 14 days
Text: as §1, §2

[4] = system: woolly cupgrass (Eriochloa villosa); assay: Test C preemergence; conditions: for Plant response rating, Cupgrass, Woolly: scale 0 to 100, 0 no effect, 100 complete control; for Plant response rating (0 to 100), Cupgrass, Woolly: visual evaluation after 12 to 14 days
Text: as §1, §2

[5] = system: bermudagrass (Cynodon dactylon); assay: Test C preemergence; conditions: for Plant response rating, Bermudagrass: scale 0 to 100, 0 no effect, 100 complete control; for Plant response rating (0 to 100 where 0 is no effect and 100 is complete control), Bermudagrass: visual evaluation after 12 to 14 days
Text: as §1, §2

[6] = system: lambsquarters (Chenopodium album); assay: Test C preemergence; conditions: for Plant response rating, Lambsquarters: scale 0 to 100, 0 no effect, 100 complete control
Text: as §1, §2

[7] = system: soybean (Glycine max); assay: Test C preemergence; conditions: preemergence; for Plant response rating, Soybean: scale 0 to 100, 0 no effect, 100 complete control
Text: as §1, §2

[8] = system: giant foxtail (Setaria faberii); assay: Test C preemergence; conditions: for Plant response rating, Foxtail, Giant: scale 0 to 100, 0 no effect, 100 complete control; for Plant response rating (0 to 100), Foxtail, Giant: visual evaluation after 12 to 14 days
Text: as §1, §2

[9] = system: common ragweed (Ambrosia elatior); assay: Test C preemergence; conditions: preemergence; for Plant response rating, Ragweed, Common: scale 0 to 100, 0 no effect, 100 complete control
Text: as §1, §2

[10] = system: pigweed (Amaranthus retroflexus); assay: Test C preemergence; conditions: preemergence; for Plant response rating, Pigweed: scale 0 to 100, 0 no effect, 100 complete control
Text: as §1, §2

[11] = system: Surinam grass (Brachiaria decumbens); assay: Test C preemergence; conditions: for Plant response rating, Surinam grass: scale 0 to 100, 0 no effect, 100 complete control; for Plant response rating (0 to 100), Surinam grass: visual evaluation after 12 to 14 days
Text: as §1, §2

[12] = system: johnsongrass (Sorghum halepense); assay: Test C preemergence; conditions: for Plant response rating, Johnsongrass: scale 0 to 100, 0 no effect, 100 complete control; for Plant response rating (0 to 100), Johnsongrass: visual evaluation after 12 to 14 days
Text: as §1, §2

[13] = system: Nightshade; assay: Test C preemergence; conditions: scale 0 to 100, 0 no effect, 100 complete control
Text: as §1, §2

[14] = system: corn (Zea mays); assay: Test C preemergence; conditions: for Plant response rating, Corn: scale 0 to 100, 0 no effect, 100 complete control; for Plant response rating (0 to 100), Corn: visual evaluation after 12 to 14 days
Text: as §1, §2

[15] = system: cocklebur (Xanthium strumarium); assay: Test B postemergence; conditions: 13 to 15 days
Method in brief: (§3)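 Pre: seeded pots sprayed, chemical in non-phytotoxic solvent/surfactant mix. Post: plants 2–18 cm, 1–4 leaf, same formulation. Greenhouse 13–15 d; visual % control vs untreated, 0–100 scale.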

[16] = system: wild oat (Avena fatua); assay: Test B postemergence; conditions: 13 to 15 days
Method in brief: as §3

[17] = system: lambsquarters (Chenopodium album); assay: Test B postemergence; conditions: 13 to 15 days
Method in brief: as §3

[18] = system: crabgrass (Digitaria sanguinalis); assay: Test B postemergence; conditions: 13 to 15 days
Method in brief: as §3

[19] = system: Sunflower; assay: Test C preemergence; conditions: Rate 500 g/ha, visual evaluation after 12 to 14 days
[20] = Rate 500 g/ha, visual evaluation after 12 to 14 days
[21] = Rate 125 g/ha, scale 0 (no effect) to 100 (complete control)
[22] = Rate 500 g/ha, scale 0 to 100, 0 is no effect, 100 is complete control

CCOC(=O)c1cccc(N2CCC(n3ccc(C(C)(C)C)n3)C2=O)c1 (stereo not drawn) [Compound 72]
Plant response rating (0 to 100), Velvetleaf [1, 20]: 40
Plant response rating, Velvetleaf ([1]; Rate 125 g/ha): 0
Plant response rating, Velvetleaf ([1]; Rate 250 g/ha): 10
Plant response rating, Kochia ([2]; Rate 62 g/ha): 30
Plant response rating (0 to 100), Kochia ([2]; preemergence, Rate 250 g/ha): 90
Plant response rating (0 to 100), Kochia ([2]; preemergence, Rate 500 g/ha): 100
Plant response rating, Kochia ([2]; preemergence, Rate 125 g/ha): 100
Plant response rating, Cocklebur ([3]; Rate 62 g/ha): 0
Plant response rating (0 to 100), Cocklebur ([3]; preemergence, Rate 250 g/ha): 10
Plant response rating (0 to 100), Cocklebur ([3]; preemergence, Rate 500 g/ha): 70
Plant response rating, Cocklebur ([3]; preemergence, Rate 125 g/ha): 30
Plant response rating, Cupgrass, Woolly ([4]; Rate 62 g/ha): 0
Plant response rating (0 to 100), Cupgrass, Woolly ([4]; preemergence, Rate 250 g/ha): 80
Plant response rating (0 to 100), Cupgrass, Woolly ([4]; preemergence, Rate 500 g/ha): 70
Plant response rating, Cupgrass, Woolly ([4]; preemergence, Rate 125 g/ha): 10
Plant response rating, Bermudagrass ([5]; Rate 62 g/ha): 0
Plant response rating (0 to 100 where 0 is no effect and 100 is complete control), Bermudagrass ([5]; preemergence, Rate 250 g/ha): 90
Plant response rating (0 to 100 where 0 is no effect and 100 is complete control), Bermudagrass ([5]; preemergence, Rate 500 g/ha): 100
Plant response rating, Bermudagrass ([5]; preemergence, Rate 125 g/ha): 90
Plant response rating, Lambsquarters ([6]; Rate 62 g/ha): 0
Plant response rating (0 to 100), Lambsquarters ([6]; preemergence, Rate 500 g/ha, visual evaluation after 12 to 14 days): 100
Plant response rating, Lambsquarters ([6]; preemergence, Rate 125 g/ha): 100
Plant response rating, Lambsquarters ([6]; preemergence, Rate 250 g/ha): 100
Plant response rating (0 to 100), Soybean [7, 20]: 20
Plant response rating, Soybean ([7]; Rate 125 g/ha): 0
Plant response rating, Soybean ([7]; Rate 250 g/ha): 0
Plant response rating, Foxtail, Giant ([8]; Rate 62 g/ha): 30
Plant response rating (0 to 100), Foxtail, Giant ([8]; preemergence, Rate 250 g/ha): 70
Plant response rating (0 to 100), Foxtail, Giant ([8]; preemergence, Rate 500 g/ha): 90
Plant response rating, Foxtail, Giant ([8]; preemergence, Rate 125 g/ha): 70
Plant response rating (0 to 100), Ragweed, Common [9, 20]: 90
Plant response rating, Ragweed, Common ([9]; Rate 125 g/ha): 0
Plant response rating, Ragweed, Common ([9]; Rate 250 g/ha): 70
Plant response rating (0 to 100), Pigweed [10, 20]: 100
Plant response rating, Pigweed ([10]; Rate 125 g/ha): 100
Plant response rating, Pigweed ([10]; Rate 250 g/ha): 0
Plant response rating, Surinam grass ([11]; Rate 62 g/ha): 0
Plant response rating (0 to 100), Surinam grass ([11]; preemergence, Rate 250 g/ha): 80
Plant response rating (0 to 100), Surinam grass ([11]; preemergence, Rate 500 g/ha): 50
Plant response rating, Surinam grass ([11]; preemergence, Rate 125 g/ha): 30
Plant response rating, Johnsongrass ([12]; Rate 62 g/ha): 0
Plant response rating (0 to 100), Johnsongrass ([12]; preemergence, Rate 250 g/ha): 0
Plant response rating (0 to 100), Johnsongrass ([12]; preemergence, Rate 500 g/ha): 40
Plant response rating, Johnsongrass ([12]; preemergence, Rate 125 g/ha): 0
Plant response rating, Nightshade ([13]; Rate 62 g/ha): 30
Plant response rating, Nightshade ([13]; Rate 125 g/ha): 10
Plant response rating, Nightshade ([13]; Rate 250 g/ha): 30
Plant response rating, Corn ([14]; Rate 62 g/ha): 0
Plant response rating (0 to 100), Corn ([14]; preemergence, Rate 250 g/ha): 0
Plant response rating (0 to 100), Corn ([14]; preemergence, Rate 500 g/ha): 0
Plant response rating, Corn ([14]; preemergence, Rate 125 g/ha): 0
Plant response rating, Cocklebur [15, 21]: 80
Plant response rating, Cocklebur [15, 22]: 90
Plant response rating, Wild Oat [16, 21]: 0
Plant response rating, Wild Oat [16, 22]: 0
Plant response rating, Lambsquarters [17, 21]: 0
Plant response rating, Lambsquarters [17, 22]: 0
Plant response rating, Crabgrass [18, 21]: 0
Plant response rating, Crabgrass [18, 22]: 30
Plant response rating (0 to 100), Sunflower [19]: 60
